Measured values published in PMC6364417, “Kinase inhibitor library screening identifies synergistic drug combinations effective in sensitive and resistant melanoma cells” (Journal of Experimental & Clinical Cancer Research : CR, 2019).

Key:
Experiment in all cases: Kinase inhibitor library screening, PrestoBlue cell viability, 1 or 10 μM, 72 h
[1] = tested on: 501Mel-GP cells (Dabrafenib-resistant); conditions: 501Mel GP, 72 h
501Mel cells (parental) = conditions: 501Mel Parental, 72 h
Method in brief: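 Each compound was applied to parental melanoma cells and to derivatives made resistant to Vemurafenib or Dabrafenib. After treatment, viability was read with PrestoBlue on a plate reader and expressed as % of untreated cells, with each line run at least in duplicate.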

[2] = tested on: A375-XP cells (Vemurafenib-resistant); conditions: A375 XP, 72 h; for cell viability, A375 XP, 1μΜ / cell viability, A375 XP, 10μΜ: in %
[3] = tested on: IGR37-XP cells (Vemurafenib-resistant); conditions: IGR37 XP, 72 h
[4] = tested on: IGR37-GP cells (Dabrafenib-resistant); conditions: IGR37 GP, 72 h
[5] = tested on: A375-GP cells (Dabrafenib-resistant); conditions: A375 GP, 72 h
[6] = tested on: 501Mel-XP cells (Vemurafenib-resistant); conditions: 501Mel XP, 72 h
IGR37 cells (parental) = conditions: IGR37 Parental, 72 h
A375 cells (parental) = conditions: A375 Parental, 72 h; for cell viability, A375 Parental, 1μΜ / cell viability, A375 Parental, 10μΜ: in %

**Q.** Which “cell viability (kinase inhibitor library screening)” value ([1]; 1μΜ) does the source give for `CCc1cc2c(cc1N1CCC(N3CCOCC3)CC1)C(C)(C)c1[nH]c3cc(C#N)ccc3c1C2=O` [CH5424802] here?
**A.** The value was 104.8%.

**Q.** What about the “cell viability (kinase inhibitor library screening)” value ([1]; 10μΜ) of the same compound?
**A.** Its value is 72.7%.

**Q.** And the “cell viability (kinase inhibitor library screening)” value (501Mel cells (parental); 1μΜ)?
**A.** The value was 109.6%.

**Q.** What about the “cell viability (kinase inhibitor library screening)” value (501Mel cells (parental); 10μΜ) of the same compound?
**A.** Its value is 80.1%.

**Q.** What about the “cell viability (kinase inhibitor library screening)” value ([2]; 1μΜ) of the same compound?
**A.** Its value is 105.6%.

**Q.** And the “cell viability (kinase inhibitor library screening)” value ([2]; 10μΜ)?
**A.** Its value is 75.8%.

**Q.** And the “cell viability (kinase inhibitor library screening)” value ([3]; 1μΜ)?
**A.** The value was 106.4%.

**Q.** What about the “cell viability (kinase inhibitor library screening)” value ([3]; 10μΜ) of the same compound?
**A.** Its value is 5.0%.

**Q.** And the “cell viability (kinase inhibitor library screening)” value ([4]; 1μΜ)?
**A.** The value was 105.2%.

**Q.** What about the “cell viability (kinase inhibitor library screening)” value ([4]; 10μΜ) of the same compound?
**A.** Its value is 10.4%.

**Q.** What about the “cell viability (kinase inhibitor library screening)” value ([5]; 10μΜ) of the same compound?
**A.** The value was 71.2%.

**Q.** And the “cell viability (kinase inhibitor library screening)” value ([6]; 1μΜ)?
**A.** The value was 99.2%.

**Q.** What about the “cell viability (kinase inhibitor library screening)” value ([6]; 10μΜ) of the same compound?
**A.** Its value is 32.3%.

**Q.** And the “cell viability (kinase inhibitor library screening)” value (IGR37 cells (parental); 1μΜ)?
**A.** Its value is 103.9%.

**Q.** What about the “cell viability (kinase inhibitor library screening)” value (IGR37 cells (parental); 10μΜ) of the same compound?
**A.** Its value is 96.2%.

**Q.** And the “cell viability (kinase inhibitor library screening)” value (A375 cells (parental); 10μΜ)?
**A.** The value was 64.9%.

**Q.** And the “cell viability (kinase inhibitor library screening)” value (A375 cells (parental); 1μΜ)?
**A.** The value was 106.9%.

**Q.** Which results are given for `CCN(CCO)CCCOc1ccc2c(Nc3cc(CC(=O)Nc4cccc(F)c4)[nH]n3)ncnc2c1` [Barasertib (AZD1152-HQPA)]?
**A.** cell viability (kinase inhibitor library screening) ([1]; 1μΜ): 99.2%; cell viability (kinase inhibitor library screening) ([1]; 10μΜ): 86.2%; cell viability (kinase inhibitor library screening) (501Mel cells (parental); 1μΜ): 96.3%; cell viability (kinase inhibitor library screening) (501Mel cells (parental); 10μΜ): 92.5%; cell viability (kinase inhibitor library screening) ([2]; 1μΜ): 66.2%; cell viability (kinase inhibitor library screening) ([2]; 10μΜ): 68.8%; cell viability (kinase inhibitor library screening) ([3]; 1μΜ): 98.0%; cell viability (kinase inhibitor library screening) ([3]; 10μΜ): 51.5%; cell viability (kinase inhibitor library screening) ([4]; 1μΜ): 98.3%; cell viability (kinase inhibitor library screening) ([4]; 10μΜ): 91.0%; cell viability (kinase inhibitor library screening) ([5]; 1μΜ): 57.9%; cell viability (kinase inhibitor library screening) ([5]; 10μΜ): 61.1%; cell viability (kinase inhibitor library screening) ([6]; 1μΜ): 90.3%; cell viability (kinase inhibitor library screening) ([6]; 10μΜ): 81.8%; cell viability (kinase inhibitor library screening) (IGR37 cells (parental); 1μΜ): 93.5%; cell viability (kinase inhibitor library screening) (IGR37 cells (parental); 10μΜ): 81.6%; cell viability (kinase inhibitor library screening) (A375 cells (parental); 10μΜ): 59.0%; cell viability (kinase inhibitor library screening) (A375 cells (parental); 1μΜ): 59.4%

**Q.** Which results are given for `S=C(NCc1ccc2c(c1)OCO2)N1CCN(c2ncnc3c2oc2ccccc23)CC1` [Amuvatinib (MP-470)]?
**A.** cell viability (kinase inhibitor library screening) ([1]; 1μΜ): 105.2%; cell viability (kinase inhibitor library screening) ([1]; 10μΜ): 86.9%; cell viability (kinase inhibitor library screening) (501Mel cells (parental); 1μΜ): 98.9%; cell viability (kinase inhibitor library screening) (501Mel cells (parental); 10μΜ): 98.9%; cell viability (kinase inhibitor library screening) ([2]; 1μΜ): 104.7%; cell viability (kinase inhibitor library screening) ([2]; 10μΜ): 94.9%; cell viability (kinase inhibitor library screening) ([3]; 10μΜ): 77.9%; cell viability (kinase inhibitor library screening) ([4]; 1μΜ): 94.7%; cell viability (kinase inhibitor library screening) ([4]; 10μΜ): 95.7%; cell viability (kinase inhibitor library screening) ([5]; 1μΜ): 95.9%; cell viability (kinase inhibitor library screening) ([5]; 10μΜ): 84.4%; cell viability (kinase inhibitor library screening) ([6]; 1μΜ): 100.3%; cell viability (kinase inhibitor library screening) ([6]; 10μΜ): 88.3%; cell viability (kinase inhibitor library screening) (IGR37 cells (parental); 1μΜ): 95.9%; cell viability (kinase inhibitor library screening) (IGR37 cells (parental); 10μΜ): 97.0%; cell viability (kinase inhibitor library screening) (A375 cells (parental); 10μΜ): 84.8%; cell viability (kinase inhibitor library screening) (A375 cells (parental); 1μΜ): 97.4%

**Q.** What does the source list for `CNC(=O)Nc1ccc(-c2nc(N3CC4CCC(C3)O4)c3cnn(C4CCC5(CC4)OCCO5)c3n2)cc1` [WYE-125132]?
**A.** Cell viability in kinase inhibitor library screening, 501Mel GP, 1μΜ ([1]; 1μΜ, in %): 16.3; Cell viability in kinase inhibitor library screening, 501Mel GP, 10μΜ ([1]; 10μΜ, in %): 8.1; Cell viability in kinase inhibitor library screening, 501Mel Parental, 1μΜ (501Mel cells (parental); 1μΜ, in %): 17.3; Cell viability in kinase inhibitor library screening, 501Mel Parental, 10μΜ (501Mel cells (parental); 10μΜ, in %): 5.8; Cell viability in kinase inhibitor library screening, A375 XP, 1μΜ ([2]; 1μΜ): 19.4; Cell viability in kinase inhibitor library screening, A375 XP, 10μΜ ([2]; 10μΜ): 17.0; Cell viability in kinase inhibitor library screening, IGR37 XP, 10μΜ ([3]; 10μΜ): 12.8%; Cell viability in kinase inhibitor library screening, IGR37 XP, 1μΜ ([3]; 1μΜ, in %): 30.9; Cell viability in kinase inhibitor library screening, IGR37 GP, 10μΜ ([4]; 10μΜ): 34%; Cell viability in kinase inhibitor library screening, IGR37 GP, 1μΜ ([4]; 1μΜ, in %): 43.3; Cell viability in kinase inhibitor library screening, A375 GP, 1μΜ ([5]; 1μΜ): 22.4; Cell viability in kinase inhibitor library screening, A375 GP, 10μΜ ([5]; 10μΜ): 15.7; Cell viability in kinase inhibitor library screening, 501Mel XP, 1μΜ ([6]; 1μΜ, in %): 18.5; Cell viability in kinase inhibitor library screening, 501Mel XP, 10μΜ ([6]; 10μΜ, in %): 5.5; Cell viability in kinase inhibitor library screening, IGR37 Parental, 1μΜ (IGR37 cells (parental); 1μΜ, in %): 27.6; Cell viability in kinase inhibitor library screening, IGR37 Parental, 10μΜ (IGR37 cells (parental); 10μΜ, in %): 22.1; Cell viability in kinase inhibitor library screening, A375 Parental, 10μΜ (A375 cells (parental); 10μΜ): 19.3; Cell viability in kinase inhibitor library screening, A375 Parental, 1μΜ (A375 cells (parental); 1μΜ): 22.3

**Q.** Which results are given for `Nc1cccc(-c2cc3c(Oc4cccc(O)c4)ncnc3[nH]2)c1` [TWS119]?
**A.** cell viability, 501Mel GP, 10μΜ ([1]; 10μΜ, in %): 40.8; cell viability, 501Mel Parental, 1μΜ (501Mel cells (parental); 1μΜ, in %): 90.4; cell viability, 501Mel Parental, 10μΜ (501Mel cells (parental); 10μΜ, in %): 35.3; cell viability, A375 XP, 1μΜ ([2]; 1μΜ): 96.8; cell viability, A375 XP, 10μΜ ([2]; 10μΜ): 67.4; cell viability, IGR37 XP, 10μΜ ([3]; 10μΜ): 33.3%; cell viability, IGR37 XP, 1μΜ ([3]; 1μΜ, in %): 80.5; cell viability, IGR37 GP, 10μΜ ([4]; 10μΜ): 61.4%; cell viability, IGR37 GP, 1μΜ ([4]; 1μΜ, in %): 96.5; cell viability, A375 GP, 1μΜ ([5]; 1μΜ, in %): 97.7; cell viability, A375 GP, 10μΜ ([5]; 10μΜ, in %): 41.9; cell viability, 501Mel XP, 1μΜ ([6]; 1μΜ, in %): 95.3; cell viability, 501Mel XP, 10μΜ ([6]; 10μΜ, in %): 26.6; cell viability, IGR37 Parental, 1μΜ (IGR37 cells (parental); 1μΜ, in %): 100.4; cell viability, IGR37 Parental, 10μΜ (IGR37 cells (parental); 10μΜ, in %): 65.2; cell viability, A375 Parental, 1μΜ (A375 cells (parental); 1μΜ): 93.6; cell viability, A375 Parental, 10μΜ (A375 cells (parental); 10μΜ): 29.8

**Q.** Which results are given for `C#Cc1cccc(Nc2ncnc3cc(OCCOC)c(OCCO)cc23)c1` [Desmethyl Erlotinib (CP-473420)]?
**A.** cell viability, 501Mel GP, 1μΜ ([1]; 1μΜ, in %): 107.4; cell viability, 501Mel GP, 10μΜ ([1]; 10μΜ, in %): 74.9; cell viability, 501Mel Parental, 10μΜ (501Mel cells (parental); 10μΜ, in %): 82.4; cell viability, A375 XP, 1μΜ ([2]; 1μΜ): 100.2; cell viability, A375 XP, 10μΜ ([2]; 10μΜ): 81.3; cell viability, IGR37 XP, 10μΜ ([3]; 10μΜ): 49.7%; cell viability, IGR37 XP, 1μΜ ([3]; 1μΜ, in %): 80.3; cell viability, IGR37 GP, 10μΜ ([4]; 10μΜ): 73.5%; cell viability, IGR37 GP, 1μΜ ([4]; 1μΜ, in %): 85.7; cell viability, A375 GP, 10μΜ ([5]; 10μΜ, in %): 65.7; cell viability, 501Mel XP, 1μΜ ([6]; 1μΜ, in %): 100.0; cell viability, 501Mel XP, 10μΜ ([6]; 10μΜ, in %): 41.7; cell viability, IGR37 Parental, 1μΜ (IGR37 cells (parental); 1μΜ, in %): 99.9; cell viability, IGR37 Parental, 10μΜ (IGR37 cells (parental); 10μΜ, in %): 92.4; cell viability, A375 Parental, 1μΜ (A375 cells (parental); 1μΜ): 104.3; cell viability, A375 Parental, 10μΜ (A375 cells (parental); 10μΜ): 78.2

**Q.** Which results are given for `Nc1nccc(Oc2ccc(NC(=O)c3c[nH]cc(-c4ccc(F)cc4)c3=O)cc2F)c1Cl` [BMS 794833]?
**A.** cell viability (kinase inhibitor library screening) ([1]; 1μΜ): 90.0%; cell viability (kinase inhibitor library screening) ([1]; 10μΜ): 70.5%; cell viability (kinase inhibitor library screening) (501Mel cells (parental); 1μΜ): 95.9%; cell viability (kinase inhibitor library screening) (501Mel cells (parental); 10μΜ): 83.2%; cell viability (kinase inhibitor library screening) ([2]; 1μΜ): 104.8%; cell viability (kinase inhibitor library screening) ([2]; 10μΜ): 96.9%; cell viability (kinase inhibitor library screening) ([3]; 1μΜ): 103.7%; cell viability (kinase inhibitor library screening) ([3]; 10μΜ): 63.5%; cell viability (kinase inhibitor library screening) ([4]; 1μΜ): 94.1%; cell viability (kinase inhibitor library screening) ([4]; 10μΜ): 90.1%; cell viability (kinase inhibitor library screening) ([5]; 10μΜ): 85.8%; cell viability (kinase inhibitor library screening) ([6]; 1μΜ): 91.8%; cell viability (kinase inhibitor library screening) ([6]; 10μΜ): 52.9%; cell viability (kinase inhibitor library screening) (IGR37 cells (parental); 1μΜ): 106.3%; cell viability (kinase inhibitor library screening) (IGR37 cells (parental); 10μΜ): 97.3%; cell viability (kinase inhibitor library screening) (A375 cells (parental); 10μΜ): 63.8%
